system: Pseudomonas sp. strain PED alcohol dehydrogenase; test: PED alcohol dehydrogenase enzyme assay, reduction of carbonyl substrates (relative rates); assay type: biochemical; conditions: not given

Structure (SMILES) | Relative rate
O=C(c1ccccc1)C(F)(F)F [Compound 1, trifluoroacetophenone] | 7
CC(=O)C(=O)c1ccccc1 [Compound 3, 1-phenyl-1,2-propanedione] | 34
COC(=O)CC(=O)CCl [Compound 9, methyl 4-chloro-3-oxobutanoate] | 4
CC(=O)CCC=C(C)C [Compound 10, 6-methyl-5-hepten-2-one] | 6
CC(=O)CCCCl [Compound 11, 5-chloro-2-pentanone] | 5
O=C(CCCCl)c1ccc(F)cc1 [Compound 16] | 0
CC(=O)CCC=C(C)C [Compound 23] | 7
CC(=O)C(Cl)C(C)=O [Compound 26] | 336
COC(=O)CC(C)=O [Compound 27] | 135
CC(=O)CCC(C)=O [Compound 28] | 9
O=C(CCl)CCl [Compound 36] | 6
CC(C)[C@@H]1CC[C@@H](C)CC1=O [Compound 41] | 3.4
CN(C)CCC(=O)c1ccccc1 [Compound 49] | 8
CC(=O)C#Cc1ccccc1 [Compound 51] | < 0.1
CC(=O)/C=C/c1ccccc1 [Compound 54] | 0
CCC(=O)c1ccccc1 [Compound 58] | < 1
CCC(C)=O [Compound 59] | 100
CCCC(C)=O [Compound 60] | 6
CCCCC(C)=O [Compound 61] | 5
C#CC(C)=O [Compound 64, 1-Butyn-3-one] | 1
CC(=O)C(C)Cl (stereo not drawn) [Compound 65] | 11

same assay, conditions: Table 1; reduction, 10 mM ketone, 0.45 mM NADH, PED, change in absorbance at 340 nm; Compound 2 = 1 (2.1 U/mg enzyme)

Structure (SMILES) | Relative rate
O=C[C@@H]1C[C@H]1c1ccccc1 (relative stereo) [Compound 5, 1-carboxaldehyde-2-phenylcyclopropane] | 7
CC(=O)c1ccccc1 [Compound 2, acetophenone] | 1
COC(=O)C(=O)c1ccccc1 [Compound 4, methyl benzoylformate] | 4
CC(=O)CCc1ccccc1 [Compound 6, 4-phenyl-2-butanone] | 6
O=C(c1ccccc1)C1CC1 [Compound 7, phenyl cyclopropyl ketone] | < 1
O=C(CCCCl)c1ccccc1 [Compound 8] | 4
CCCCC(=O)c1ccco1 [Compound 12] | < 0.1
CCCCCC(=O)CC [Compound 13, 3-octanone] | 3
O=C(CCl)c1ccc(O)c(O)c1 [Compound 14] | < 0.1
O=C(CCCCl)c1ccc(O)cc1 [Compound 15] | 0
O=C(CCCCl)c1cccs1 [Compound 17] | 4
O=C(CC(=O)C(F)(F)F)c1cccs1 [Compound 18] | 0
CC(=O)c1ccco1 [Compound 19] | 0
COc1coc(C(C)=O)c1OC [Compound 20] | 0.6
O=C1CCCCc2ccccc21 [Compound 21] | 4

same assay, conditions: Table 2; determined as described in Table 1 (10 mM ketone, 0.45 mM NADH, 340 nm)

Structure (SMILES) | Relative rate
C=CCCC(C)=O [Compound 22] | 8
COC(C)=CC(C)=O [Compound 24] | 0
CC(=O)CC(C)=O [Compound 25] | 32
CC(=O)CCC(=O)O [Compound 29] | 0
CCCCCC(=O)C(=O)O [Compound 30] | 0
COC(=O)C1CCCC1=O (stereo not drawn) [Compound 31] | 22
CC1C(=O)CCC1=O [Compound 32] | 0
CCOC(=O)CC(=O)CC [Compound 33] | 6
C=CC(=O)CCCCC [Compound 34] | 6
CCCCCC(=O)CC [Compound 35] | 2
C#CC(=O)CCl [Compound 37] | 2
C#CC(=O)CCC(=O)OC [Compound 38, Methyl-4-oxo-5-hexynoate] | < 0.1
C#CC(=O)CCC [Compound 39, 1-Hexyn-3-one] | 0
O=C1C=CCCC1 [Compound 42] | 0
CC1=CC(=O)CCC1 [Compound 43] | 0
O=C1C2CCC(C2)C1Cl (stereo not drawn) [Compound 45] | 2
CC(=O)C1CC2C=CC1C2 (stereo not drawn) [Compound 46] | 0

Structure (SMILES) | Relative rate
O=C1CC2C=CC1C2 (stereo not drawn) [Compound 47] | 0
CC(=O)COc1ccccc1 [Compound 48] | 7
CCOC(OCC)C(=O)c1ccccc1 [Compound 50] | < 0.1
CC(=O)c1ccc2c(c1)OCCO2 [Compound 52] | 0
CC(=O)c1c[nH]c2ccccc12 [Compound 53] | 0
CC(=O)C1CCc2ccccc2C1=O (stereo not drawn) [Compound 55] | 0
O=C1CCSc2ccccc21 [Compound 56] | 0
CC(=O)c1ccccn1 [Compound 57] | 1.8
CCCCCC(C)=O [Compound 62] | 5
CC(=O)C(C)O (stereo not drawn) [Compound 63] | 2
CC(=O)C1CC1 [Compound 66] | 11
CSC(C)C(C)=O (stereo not drawn) [Compound 67] | 5
CC(=O)C(C)CO (stereo not drawn) [Compound 68] | 0
COC(OC)C(C)=O [Compound 69] | 5
C/C=C/C(C)=O [Compound 70] | < 0.1
CO/C=C/C(C)=O [Compound 71] | 0

same assay, conditions: footnote b of Table 1; 10 mM ketone, 0.45 mM NADH

Structure (SMILES) | Rate of reduction corresponding to relative rate 1
CC(=O)c1ccccc1 [Compound 2, acetophenone] | 2.1 U/mg enzyme

same assay, conditions: statement in words on Table 1

Structure (SMILES) | Substrate quality compared with acetophenone
CC(=O)CCc1ccccc1 [Compound 6, 4-phenyl-2-butanone] | as good a substrate as is acetophenone

system: PED alcohol dehydrogenase; test: Kinetics and product inhibition of PED alcohol dehydrogenase, oxidation of 2-propanol with NAD; assay type: biochemical, Pseudomonas sp. strain PED; conditions: isolated PED alcohol dehydrogenase

Structure (SMILES) | Km
CC(C)O [Compound 2-propanol, 2-propanol] | 75 µM
NC(=O)c1ccc[n+]([C@@H]2O[C@H](COP(=O)([O-])OP(=O)(O)OC[C@H]3O[C@@H](n4cnc5c(N)ncnc54)[C@H](O)[C@@H]3O)[C@@H](O)[C@H]2O)c1 [NAD, nicotinamide adenine dinucleotide] | 525 µM

same assay, conditions: oxidation of 2-propanol

Structure (SMILES) | Product inhibition type versus 2-propanol | Product inhibition type versus NAD
NC(=O)C1=CN([C@@H]2O[C@H](COP(=O)(O)OP(=O)(O)OC[C@H]3O[C@@H](n4cnc5c(N)ncnc54)[C@H](O)[C@@H]3O)[C@@H](O)[C@H]2O)C=CC1 [NADH, reduced nicotinamide adenine dinucleotide] | noncompetitive inhibitors | competitive inhibition
CC(C)=O [acetone] | noncompetitive inhibitors | noncompetitive inhibition

same assay, conditions: with respect to 2-propanol under saturating NAD conditions

Structure (SMILES) | specific activity
CC(C)O [Compound 2-propanol, 2-propanol] | 36 U/mg
